The results in this text go back to patent publication US8080522B2, “Polyethlene glycol modifications of thymosin alpha-1” (Institute of Pharmacology and Toxicology Academy of …, priority 2005, dated 2011).

For one data set, the system named is spleen cell. As to the kind of experiment: Interferon-γ production of spleen cells stimulated by Con A (double antibody sandwich ELISA). Format: cell-based. Conditions: for Concentration of IFN-γ: Con A 0.5 μg/mL, 24 hours, n = 3; for Enhancement percentage: versus Con A alone. The method, then:
Prepare spleen cell suspension in sterile condition. Adjust cell concentration to 5×10^6 cell/mL by adding RPMI-1640 culture with 20% bovine serum. Add 0.5 mL cell suspension, 0.25 mL Con A (final concentration is 0.5 μg/mL) and 0.25 mL samples with different concentrations in 24-well plate; and add RPMI-1640 culture in control wells. Incubate the plates in a 5% CO2 chamber at 37° C. for 24 hours. Centrifuge and collect supernatant, test the content of IFN-γ in supernatant by double antibody sandwich ELISA. The protocol is according to the instruction on ELISA kit.

Data set [1] can be described thus: Plasma concentration / pharmacokinetics in mouse (competitive ELISA). Format: in vivo. To be noted: 300 μg per mouse, injected peritoneally, parameters in 24 h; for AUC: n = 3; for Cmax / Tmax: serum, ip, 300 ug/animal; for Cmax: n = 3, read-out: Cmax; for Tmax: n = 3, read-out: Tmax. The method, then: Coating antigen: Dilute Tα1 detection antigen stock solution to a final concentration of 2 μg/mL with coating solution, and add it into the wells of ELISA plate for 0.1 mL per well, and incubate at 4° C. for 5 days. Then wash the ELISA plate 3 times with washing buffer, each 0.2 mL/well and 3 min/time. Add 0.2 mL blocking buffer to each well, incubate for 1.5 hours at 37° C., wash plate 2 times by washing buffer, and spin dried.
Sample preparation: Weight sample accurately, dissolve it in saline to a concentration of 1.5 mg/mL. Administrate 0.2 Ml by injection to each mouse peritoneally. Collect blood sample in 3 min, 20 min, 40 min, 1 h, 2 h, 3 h, 6 h, 8 h, 12 h, and 24 h. Collect serum by centrifuge the blood samples for 5 minutes at 10000 rpm, stored at −20° C. in a freezer. o prepare test sample, […] was added by 0.1 mL 1:1500 rabbit anti-Tα1 serum (final concentration is 1:6000), and 0.2 mL CD-1® mouse serum, and […]. Prepare blank control at the same time. Total volume is 0.4 mL. Incubate for 2 hours at 37° C. To prepare standard sample, Tα1 0.1 mL with different concentrations from 0.0004 to 400 μg/mL was added by 0.1 mL 1:1500 rabbit anti-Tα1 serum (final concentration is 1:6000), and 0.2 mL CD-1® mouse serum. Prepare blank control at the same time. Total volume is 0.4 mL. Incubate for 2 hours at 37° C.
Sample Testing Add the prepared test sample and standard sample to ELISA plate, 0.1 mL/well, reacting for 1 hour in 37° C. chamber. Wash the plates 3 times, spin dryed. Add substrate 0.1 mL/well for 10 minutes. Add 2 mol/L H2SO4 0.05 mL to each well to terminate the reaction. Measure the OD value at 450 nm. Plot the standard curve with the concentration of Tα1 standard sample as abscissa and OD value as vertical coordinate. Calculate the content of test sample according to this standard curve.

Data set [2] is described as follows: Half-life in liver homogenate (HPLC). Conditions: 37° C., sample 0.4 mg/mL or 0.8 mg/mL, read-out: t1/2 in liver homogenate (converted). Format: in vitro ADME. The method, then: Experimental method: Prepare 0.4 mg/mL or 0.8 mg/mL sample aqueous solution in centrifuge tube, adding 50 μL liver homogenate. Then incubate for different time in 37° C. water bath. Terminate the reaction and precipitate liver homogenate protein by heating the mixture in boiling water for 5 minutes. Centrifuge it (10000 rpm) for 10 minutes. Analyze the supernatant by HPLC. The data was statistically analyzed by Origin Prof. 5.0.
HPLC: Column temperature: 25° C.; Flow rate 1.0 mL/min; Detection wavelength: 200 nm; Mobile phase A: 0.1% TFA/H2O; Mobile phase B: 0.1% TFA/70% CH3CN.

Data set [3] concerns T lymphocyte (spleen cell). The data set is described as follows: T lymphocyte proliferation stimulated by Con A (3H-TdR incorporation). Format: cell-based, mouse. Conditions: for 3H-TdR incorporation (cpm, x ± SD): Con A 0.5 μg/mL, 72 hours, n = 4; for Enhancement percentage: versus Con A alone. The method, then:
Sacrifice mouse by draining artery blood, remove spleen in sterile condition, and make it to spleen cell suspension. After red blood cell lysis, wash for 3 times, and stain with Trypan Blue to count the living cells. The amount of living cells should be more than 95%. Dilute the cell concentration to 5×10^6 cell/mL by adding RPMI-1640 culture with 10% bovine serum. Add spleen cell suspension to a sterilized 96-well plate for 100 μL per well. The total amount is 200 μL per well (including 50 μL Con A and 50 μL medicament). Each sample concentration is repeated fro 3-4 wells. Incubate the plate in a 5% CO2 chamber for 72 hours, add 10 μci/mL ^3H-TdR 20 μL per well 16 hours before termination of the incubation, giving rise to a final concentration of 1.0 μci (37.0 KBq)/mL. Collect cells on filter membrane by using Herveste 96 cell harvester, dried in 80° C. oven for 20 minutes or dried in air. Put the dried filter membrane into 1450-423 microBeta sample bag, add scintillation liquid, and measure radioactivity (cpm) in Perkin Elmer MicroBeta Trilux 1450 Scintillation Counter.

For the substance “Ac-CSDAAVDTSSEITTKDLKEKKEVVEEAEN-OH [BMJBT008]”, in the data set on spleen cell (Table 1-3, sample 1 μg/mL), the “Concentration of IFN-γ” value is listed as 4323.8 ± 187.0 pg/mL and the Enhancement percentage result is “+41.6%”. In the data set on spleen cell (Table 1-3, sample 10 μg/mL), the “Concentration of IFN-γ” value stood at 3115.0 ± 195.8 pg/mL and the Enhancement percentage entry was “+2.0%”. Also, in the data set on spleen cell (Table 1-3, sample 100 μg/mL), the “Concentration of IFN-γ” value stood at 2975.5 ± 182.6 pg/mL and the Enhancement percentage is recorded as −2.6%. Also, in data set [1], the AUC came to 1210 ng·h/mL, the highest concentration (Cmax) came to 430 ng/mL and the Tmax was determined as 20 min. Also, the half-life in data set [2] is less than 60 min.

Regarding “Ac-SDAACDTSSEITTKDLKEKKEVVEEAEN-OH [BMJBT001]”, the “Concentration of IFN-γ” value in the data set with spleen cell (Table 1-2, sample 1 μg/mL) is given as 3000.5 ± 56.1 pg/mL; in the data set with spleen cell (Table 1-2, sample 10 μg/mL), 3584.2 ± 31.6 pg/mL; in the data set with spleen cell (Table 1-2, sample 100 μg/mL), 3618.5 ± 93.8 pg/mL. Moreover, the “Enhancement percentage” value in the data set on spleen cell (Table 1-2, sample 1 μg/mL) is −7.9%; with spleen cell (Table 1-2, sample 10 μg/mL), “+10.0%”; with spleen cell (Table 1-2, sample 100 μg/mL), “+11.0%”; in data set [3] (Table 2-2, sample 10 μg/mL) it was “+65.7%”; in data set [3] (Table 2-2, sample 50 μg/mL) it was “+71.6%”; in data set [3] (Table 2-2, sample 100 μg/mL) it was “+81.4%”. The substance further returned an AUC in data set [1] of 3090 ng·h/mL. Moreover, in data set [1], the Cmax was determined as 448 ng/mL. Moreover, in data set [1], the Tmax worked out at 20 min. Also, the half-life in data set [2] was 228 min. Also, the “3H-TdR incorporation (cpm, x ± SD)” value in data set [3] (Table 2-2, sample 10 μg/mL) is on record as 19289 ± 4456 cpm; in data set [3] (Table 2-2, sample 50 μg/mL), 19972 ± 3287 cpm; in data set [3] (Table 2-2, sample 100 μg/mL), 21119 ± 5339 cpm.

As for “Ac-SDAAVDTCSEITTKDLKEKKEVVEEAEN-OH [BMJBT002]”, in data set [1], the AUC came out at 2440 ng·h/mL, the Cmax worked out at 1860 ng/mL and the Tmax came out at 20 min. For the same substance, the half-life in data set [2] was 126 min. For the same substance, in data set [3] (Table 2-2, sample 10 μg/mL), the “3H-TdR incorporation (cpm, x ± SD)” value is 23881 ± 2809 cpm and the Enhancement percentage result is “+105.1%”. In data set [3] (Table 2-2, sample 50 μg/mL), the “3H-TdR incorporation (cpm, x ± SD)” value is listed as 19611 ± 2612 cpm and the Enhancement percentage entry is given as “+68.5%”. For the same substance, in data set [3] (Table 2-2, sample 100 μg/mL), the “3H-TdR incorporation (cpm, x ± SD)” value was determined as 11956 ± 1555 cpm and the Enhancement percentage result was “+2.6%”.

With “Ac-SDAAVDTSSECTTKDLKEKKEVVEEAEN-OH [BMJBT003]”, the “Concentration of IFN-γ” value in the data set with spleen cell (Table 1-2, sample 1 μg/mL) is 3428.6 ± 111.9 pg/mL; with spleen cell (Table 1-2, sample 10 μg/mL) it was 3732.2 ± 30.2 pg/mL; in the data set with spleen cell (Table 1-2, sample 100 μg/mL), 3990.8 ± 250.0 pg/mL. The “Enhancement percentage” value is listed as “+5.2%” in the data set on spleen cell (Table 1-2, sample 1 μg/mL); “+14.5%” in the data set on spleen cell (Table 1-2, sample 10 μg/mL); “+22.5%” in the data set with spleen cell (Table 1-2, sample 100 μg/mL); “+87.5%” in data set [3] (Table 2-2, sample 10 μg/mL); “+77.3%” in data set [3] (Table 2-2, sample 50 μg/mL); “+30.9%” in data set [3] (Table 2-2, sample 100 μg/mL). The AUC in data set [1] came to 8710 ng·h/mL. Moreover, in data set [1], the Cmax was 5650 ng/mL. Also, in data set [1], the Tmax was determined as 20 min. Moreover, the half-life in data set [2] was 168 min. In addition, the “3H-TdR incorporation (cpm, x ± SD)” value in data set [3] (Table 2-2, sample 10 μg/mL) amounted to 21825 ± 2216 cpm; in data set [3] (Table 2-2, sample 50 μg/mL), 20465 ± 2432 cpm; in data set [3] (Table 2-2, sample 100 μg/mL) it was 15240 ± 2369 cpm.

As to “Ac-SDAAVDTSSEITTKDCKEKKEVVEEAEN-OH [BMJBT004]”, in the data set with spleen cell (Table 1-2, sample 1 μg/mL), the “Concentration of IFN-γ” value is on record as 3671.1 ± 86.0 pg/mL and the “Enhancement percentage” value was “+12.7%”. Besides, in the data set with spleen cell (Table 1-2, sample 10 μg/mL), the “Concentration of IFN-γ” value is listed as 3216.1 ± 228.6 pg/mL and the “Enhancement percentage” value was −1.3%. In the data set with spleen cell (Table 1-2, sample 100 μg/mL), the “Concentration of IFN-γ” value stood at 3565.9 ± 77.8 pg/mL and the “Enhancement percentage” value is recorded as “+0.5%”. Besides, in data set [1], the exposure (AUC) was determined as 8760 ng·h/mL, the Cmax amounted to 4940 ng/mL and the Tmax worked out at 20 min. Further, the half-life in data set [2] is 48 min.

As for “Ac-SDAAVDTSSEITTKDLCEKKEVVEEAEN-OH [BMJBT005]”, the “Concentration of IFN-γ” value was determined as 1822.2 ± 24.3 pg/mL in the data set on spleen cell (Table 1-1, sample 1 μg/mL); 1706.5 ± 139.3 pg/mL in the data set with spleen cell (Table 1-1, sample 10 μg/mL); 906.9 ± 10.7 pg/mL in the data set with spleen cell (Table 1-1, sample 100 μg/mL). The “Enhancement percentage” value is given as “+142.4%” in the data set with spleen cell (Table 1-1, sample 1 μg/mL); “+127.0%” in the data set on spleen cell (Table 1-1, sample 10 μg/mL); “+20.6%” with spleen cell (Table 1-1, sample 100 μg/mL); “+64.9%” in data set [3] (Table 2-1, sample 10 μg/mL); “+66.2%” in data set [3] (Table 2-1, sample 50 μg/mL); “+30.1%” in data set [3] (Table 2-1, sample 100 μg/mL). The substance further displayed an AUC in data set [1] of 6110 ng·h/mL. The Cmax in data set [1] turned out to be 3650 ng/mL. Moreover, the time to peak (Tmax) in data set [1] came to 20 min. Further, the half-life in data set [2] was 168 min. Further, the “3H-TdR incorporation (cpm, x ± SD)” value in data set [3] (Table 2-1, sample 10 μg/mL) is recorded as 22237 ± 5551 cpm; in data set [3] (Table 2-1, sample 50 μg/mL), 22413 ± 1436 cpm; in data set [3] (Table 2-1, sample 100 μg/mL), 17551 ± 2491 cpm.

On to “Ac-SDAAVDTSSEITTKDLKEKKCVVEEAEN-OH [BMJBT006]”, for which, in data set [1], the AUC turned out to be 12800 ng·h/mL, the Cmax was found to be 11500 ng/mL and the Tmax came out at 20 min. Also, the half-life in data set [2] is 156 min. In data set [3] (Table 2-1, sample 10 μg/mL), the “3H-TdR incorporation (cpm, x ± SD)” value was 21152 ± 2936 cpm and the Enhancement percentage entry was “+56.8%”. In data set [3] (Table 2-1, sample 50 μg/mL), the “3H-TdR incorporation (cpm, x ± SD)” value stood at 19880 ± 1777 cpm and the Enhancement percentage result is recorded as “+47.4%”. Moreover, in data set [3] (Table 2-1, sample 100 μg/mL), the “3H-TdR incorporation (cpm, x ± SD)” value is listed as 14319 ± 2333 cpm and the Enhancement percentage entry was “+6.2%”.

In the case of “Ac-SDAAVDTSSEITTKDLKEKKEVVCEAEN-OH [BMJBT007]”, in data set [1], the AUC is 17900 ng·h/mL, the Cmax is 5990 ng/mL and the Tmax was determined as 20 min. For the same substance, the half-life in data set [2] was 30 min.
